We go through nine molecules from patent EP4786487A1, “PEPTIDE” (Peptidream Inc, priority 2023, dated 2025).

The target of one assay is T1, Myostatin (Homo sapiens, UniProt O14793).
T1 construct: active myostatin (also called mature myostatin) is a homodimer consisting of two C-terminal growth factor domains; purchased R&D systems 788-G8/CF
T1 sequence (O14793 267-375): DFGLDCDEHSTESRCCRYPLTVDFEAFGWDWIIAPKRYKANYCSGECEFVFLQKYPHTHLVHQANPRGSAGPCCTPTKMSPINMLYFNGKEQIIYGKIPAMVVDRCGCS
Description: HepG2 reporter gene assay, Evaluation Procedure (2): 2-concentrations assay, myostatin inhibition. It is filed as cell-based. As to conditions: Myostatin 10 ng/mL, HepG2; for inhibition at 0.03 µM: peptide 30nM, read-out: Myostatin Inhibition 30nM; for inhibition at 0.1 µM: peptide 100nM, read-out: Myostatin Inhibition 100nM. Summed up:
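Myostatin inhibition was measured in a luciferase reporter assay using HepG2 cells transfected with a pGL3 vector containing 12 CAGA repeats upstream of luciferase. After 20 to 24 hours with 10 ng/mL myostatin, cells received One-Glo:PBS (1:1) at 100 µL/well, were shaken for 5 min, and 20 µL/well was moved to 384-well plates and read on an Envision 2104.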
A general note: Reporter assays use an easily measured gene product as a stand-in for the process of interest.

The target of another assay is T2, GDF-11 (Homo sapiens, UniProt O95390).
T2 construct: purchased R&D systems 1958-GD-G8/CF
T2 sequence (O95390 299-407): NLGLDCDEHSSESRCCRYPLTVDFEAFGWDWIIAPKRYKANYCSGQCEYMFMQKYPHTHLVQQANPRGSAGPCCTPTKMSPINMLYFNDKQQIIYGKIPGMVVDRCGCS
In words: HepG2 reporter gene assay, Evaluation Procedure (2): 2-concentrations assay, GDF-11 inhibition. It is filed as cell-based. The following applies: GDF-11 10 ng/mL; for inhibition at 0.03 µM: HepG2, peptide 30nM, read-out: GDF11 Inhibition 30nM; for inhibition at 0.1 µM: HepG2, peptide 100nM, read-out: GDF11 Inhibition 100nM. Summed up: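 HepG2 cells carrying the transfected pGL3(CAGA)12-luc reporter, a pGL3 vector with luciferase placed downstream of 12 CAGA repeats, were stimulated with GDF-11 at a final 10 ng/mL together with test peptide. Blank wells received no GDF-11 and no peptide. Plates were incubated 20 to 24 hours at 37°C with 5% CO2. Luminescence from One-Glo substrate was read to calculate percent inhibition.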

Starred links: 1 amine or outer side, 2 acyl side, 3 side chain; linkers in the order of their positions; H or OH if unused. Positions of bridges follow the written chain, without caps; N, C: chain ends. Non-standard residues stand in square brackets, D forms with d. Residues, ends and D or L forms follow the SMILES beside them. *: point of attachment. Phe(3-OCH2COOH) = N[C@@H](Cc1cccc(OCC(=O)O)c1)C(=O)O; X15 = O=C([C@H](Cc1ccc(-c2ccccn2)cc1)N[*:1])[*:2]; Phe(4-CONH2) = NC(=O)c1ccc(C[C@H](N)C(=O)O)cc1; Phe(4-COOH) = N[C@@H](Cc1ccc(C(=O)O)cc1)C(=O)O; X14 = CCc1cccc(C[C@@H](C(=O)[*:2])N(C)[*:1])c1; Trp(7-aza) = N[C@@H](Cc1c[nH]c2ncccc12)C(=O)O; Tyr(Ph) = N[C@@H](Cc1ccc(Oc2ccccc2)cc1)C(=O)O; NMePhe(3-Me) = CN[C@@H](Cc1cccc(C)c1)C(=O)O; Bip = N[C@@H](Cc1ccc(-c2ccccc2)cc1)C(=O)O; Phe(3-OMe) = COc1cccc(C[C@H](N)C(=O)O)c1; Gly(N(CH2)3COOH) = O=C(O)CCCNCC(=O)O; NMeY = CN[C@@H](Cc1ccc(O)cc1)C(=O)O; NMeF = CN[C@@H](Cc1ccccc1)C(=O)O; 4Pal = N[C@@H](Cc1ccncc1)C(=O)O; Carboxymethyl = O=C(O)C*; NMeA = CN[C@@H](C)C(=O)O; Sar = CNCC(=O)O

The inhibition is how much of the control response was suppressed. For the molecule `CC[C@H](C)[C@@H]1NC(=O)[C@H](Cc2ccccc2)N(C)C(=O)[C@H](Cc2ccc(O)cc2)NC(=O)[C@H](Cc2c[nH]c3ncccc23)NC(=O)[C@H](C)NC(=O)CN(CCCC(=O)O)C(=O)CSC[C@H](C(=O)N[C@H](CO)C(=O)N[C@H](CO)C(=O)N[C@H](CO)C(=O)N[C@H](CCCCN)C(=O)O)NC(=O)[C@H](Cc2ccccc2)N(C)C(=O)[C@H](C)N(C)C(=O)[C@H](CC(C)C)NC(=O)[C@H](Cc2ccccc2)N(C)C(=O)[C@H](CCCNC(=N)N)NC(=O)[C@H](Cc2ccc(C(=O)O)cc2)NC(=O)[C@H](Cc2ccccc2)NC(=O)CN(C)C1=O` [Myostatin_99_v37] ({CH2CO}-[Gly(N(CH2)3COOH)]A[Trp(7-aza)]Y[NMeF]I[Sar]F[Phe(4-COOH)]R[NMeF]L[NMeA][NMeF][dC][dS][dS][dS][dK]-OH; thioether N-15), on Myostatin, the inhibition at 0.03 µM was 69% and the inhibition at 0.1 µM was 88%. Besides, on GDF-11, the inhibition at 0.03 µM was found to be 0% and the inhibition at 0.1 µM came out at 0%.
As for `CC[C@H](C)[C@@H]1NC(=O)[C@H](Cc2ccccc2)N(C)C(=O)[C@H](Cc2ccc(O)cc2)NC(=O)[C@H](Cc2c[nH]c3ncccc23)NC(=O)[C@H](C)NC(=O)CN(CCCC(=O)O)C(=O)CSC[C@H](C(=O)N[C@H](CO)C(=O)N[C@H](CO)C(=O)N[C@H](CO)C(=O)N[C@H](CCCCN)C(=O)O)NC(=O)[C@H](Cc2ccccc2)N(C)C(=O)[C@H](C)N(C)C(=O)[C@H](CC(C)C)NC(=O)[C@H](Cc2ccccc2)N(C)C(=O)[C@H](CCCNC(=N)N)NC(=O)[C@H](Cc2ccc(C(=O)O)cc2)NC(=O)[C@H](Cc2ccncc2)NC(=O)CN(C)C1=O` [Myostatin_99_v38] ({CH2CO}-[Gly(N(CH2)3COOH)]A[Trp(7-aza)]Y[NMeF]I[Sar][4Pal][Phe(4-COOH)]R[NMeF]L[NMeA][NMeF][dC][dS][dS][dS][dK]-OH; thioether N-15), the figures for the inhibition at 0.03 µM at Myostatin and at GDF-11 were 40% and 0%, respectively. Further, the figures for the inhibition at 0.1 µM on Myostatin and at GDF-11 were 80% and 11%, respectively.
The matching figures for `CC[C@H](C)[C@@H]1NC(=O)[C@H](Cc2ccccc2)N(C)C(=O)[C@H](Cc2ccc(O)cc2)NC(=O)[C@H](Cc2c[nH]c3ncccc23)NC(=O)[C@H](CCC(=O)O)NC(=O)[C@H](C)NC(=O)CSC[C@H](C(=O)N[C@H](CO)C(=O)N[C@H](CO)C(=O)N[C@H](CO)C(=O)N[C@H](CCCCN)C(=O)O)NC(=O)[C@H](Cc2ccccc2)N(C)C(=O)[C@H](C)N(C)C(=O)[C@H](CC(C)C)NC(=O)[C@H](Cc2ccccc2)N(C)C(=O)[C@H](CCCNC(=N)N)NC(=O)[C@H](Cc2ccc(C(=O)O)cc2)NC(=O)[C@H](Cc2ccccc2)NC(=O)CN(C)C1=O` [Myostatin_99_v39] ({CH2CO}-AE[Trp(7-aza)]Y[NMeF]I[Sar]F[Phe(4-COOH)]R[NMeF]L[NMeA][NMeF][dC][dS][dS][dS][dK]-OH; thioether N-15): 39%, 0%, 79% and 11%.
Take `CC[C@H](C)[C@@H]1NC(=O)[C@H](Cc2ccccc2)N(C)C(=O)[C@H](Cc2ccc(O)cc2)NC(=O)[C@H](Cc2c[nH]c3ncccc23)NC(=O)[C@H](CCC(=O)O)NC(=O)[C@H](C)NC(=O)CSC[C@H](C(=O)N[C@H](CO)C(=O)N[C@H](CO)C(=O)N[C@H](CO)C(=O)N[C@H](CCCCN)C(=O)O)NC(=O)[C@H](Cc2ccccc2)N(C)C(=O)[C@H](C)N(C)C(=O)[C@H](CC(C)C)NC(=O)[C@H](Cc2ccccc2)N(C)C(=O)[C@H](CCCNC(=N)N)NC(=O)[C@H](Cc2ccc(C(=O)O)cc2)NC(=O)[C@H](Cc2ccncc2)NC(=O)CN(C)C1=O` [Myostatin_99_v40] ({CH2CO}-AE[Trp(7-aza)]Y[NMeF]I[Sar][4Pal][Phe(4-COOH)]R[NMeF]L[NMeA][NMeF][dC][dS][dS][dS][dK]-OH; thioether N-15): on Myostatin, the inhibition at 0.03 µM came out at 39% and the inhibition at 0.1 µM worked out at 67%. Also, on GDF-11, the inhibition at 0.03 µM came out at 0% and the inhibition at 0.1 µM worked out at 0%.
`CC[C@H](C)[C@@H]1NC(=O)[C@H](Cc2ccccc2)N(C)C(=O)[C@H](Cc2ccc(Oc3ccccc3)cc2)NC(=O)[C@H](Cc2ccc(-c3ccccn3)cc2)NC(=O)[C@H](C)NC(=O)CN(CCCC(=O)O)C(=O)CSC[C@H](C(=O)O)NC(=O)[C@H](Cc2ccccc2)N(C)C(=O)[C@H](C)N(C)C(=O)[C@H](CC(C)C)NC(=O)[C@H](Cc2ccccc2)N(C)C(=O)[C@H](CCCNC(=N)N)NC(=O)[C@H](Cc2ccc(OCC(=O)O)cc2)NC(=O)[C@H](Cc2ccccc2)NC(=O)CN(C)C1=O` [Myostatin_99_v60] ({CH2CO}-[Gly(N(CH2)3COOH)]A[X15][Tyr(Ph)][NMeF]I[Sar]FY(Carboxymethyl)R[NMeF]L[NMeA][NMeF][dC]-OH; thioether N-15): at Myostatin, the inhibition at 0.03 µM worked out at 25% and the inhibition at 0.1 µM stood at 51%. At GDF-11, the inhibition at 0.03 µM is 7% and the inhibition at 0.1 µM amounted to 5%.
The like results for `CC[C@H](C)[C@@H]1NC(=O)[C@H](Cc2ccccc2)N(C)C(=O)[C@H](Cc2ccc(O)cc2)NC(=O)[C@H](Cc2ccc(-c3ccccc3)cc2)NC(=O)[C@H](C)NC(=O)CN(CCCC(=O)O)C(=O)CSC[C@H](C(=O)O)NC(=O)[C@H](Cc2ccccc2)N(C)C(=O)[C@H](C)N(C)C(=O)[C@H](CC(C)C)NC(=O)[C@H](Cc2ccccc2)N(C)C(=O)[C@H](CCCNC(=N)N)NC(=O)[C@H](Cc2ccc(C(N)=O)cc2)NC(=O)[C@H](Cc2ccc(C(=O)O)cc2)NC(=O)[C@H](C)N(C)C1=O` [Myostatin_99_v102] ({CH2CO}-[Gly(N(CH2)3COOH)]A[Bip]Y[NMeF]I[NMeA][Phe(4-COOH)][Phe(4-CONH2)]R[NMeF]L[NMeA][NMeF][dC]-OH; thioether N-15) were, in that order, 60%, 81%, 0% and 0%.
The like results for `CCc1cccc(C[C@H]2C(=O)N[C@@H](C(=O)O)CSCC(=O)N(CCCC(=O)O)CC(=O)N[C@@H](C)C(=O)N[C@@H](Cc3ccc(-c4ccccc4)cc3)C(=O)N[C@@H](Cc3ccc(O)cc3)C(=O)N(C)[C@@H](Cc3ccc(O)cc3)C(=O)N[C@@H]([C@@H](C)CC)C(=O)N(C)CC(=O)N[C@@H](Cc3cccc(OCC(=O)O)c3)C(=O)N[C@@H](Cc3ccc(C(=O)O)cc3)C(=O)N[C@@H](CCCNC(=N)N)C(=O)N(C)[C@@H](Cc3ccccc3)C(=O)N[C@@H](CC(C)C)C(=O)N(C)[C@@H](C)C(=O)N2C)c1` [Myostatin_99_v113] ({CH2CO}-[Gly(N(CH2)3COOH)]A[Bip]Y[NMeY]I[Sar][Phe(3-OCH2COOH)][Phe(4-COOH)]R[NMeF]L[NMeA][X14][dC]-OH; thioether N-15) were, in that order, 35%, 70%, 0% and 0%.
The like results for `CC[C@H](C)[C@@H]1NC(=O)[C@H](Cc2cccc(C)c2)N(C)C(=O)[C@H](Cc2ccc(O)cc2)NC(=O)[C@H](Cc2ccc(-c3ccccc3)cc2)NC(=O)[C@H](C)NC(=O)CN(CCCC(=O)O)C(=O)CSC[C@H](C(=O)O)NC(=O)[C@H](Cc2ccccc2)N(C)C(=O)[C@H](C)N(C)C(=O)[C@H](CC(C)C)NC(=O)[C@H](Cc2ccccc2)N(C)C(=O)[C@H](CCCNC(=N)N)NC(=O)[C@H](Cc2ccc(C(=O)O)cc2)NC(=O)[C@H](Cc2cccc(OCC(=O)O)c2)NC(=O)CN(C)C1=O` [Myostatin_99_v119] ({CH2CO}-[Gly(N(CH2)3COOH)]A[Bip]Y[NMePhe(3-Me)]I[Sar][Phe(3-OCH2COOH)][Phe(4-COOH)]R[NMeF]L[NMeA][NMeF][dC]-OH; thioether N-15) were, in that order, 46%, 70%, 0% and 0%.
As for `CC[C@H](C)[C@@H]1NC(=O)[C@H](Cc2ccccc2)N(C)C(=O)[C@H](Cc2ccc(O)cc2)NC(=O)[C@H](Cc2c[nH]c3ccccc23)NC(=O)[C@H](C)NC(=O)CN(CCCC(=O)O)C(=O)CSC[C@H](C(=O)O)NC(=O)[C@H](Cc2ccccc2)N(C)C(=O)[C@H](C)N(C)C(=O)[C@H](CC(C)C)NC(=O)[C@H](Cc2ccccc2)N(C)C(=O)[C@H](CCCNC(=N)N)NC(=O)[C@H](Cc2ccc(OCC(=O)O)cc2)NC(=O)[C@H](Cc2cccc(OC)c2)NC(=O)[C@H](C)N(C)C1=O` [Myostatin_99_v126] ({CH2CO}-[Gly(N(CH2)3COOH)]AWY[NMeF]I[NMeA][Phe(3-OMe)]Y(Carboxymethyl)R[NMeF]L[NMeA][NMeF][dC]-OH; thioether N-15), the inhibition at 0.03 µM turned out to be 28% at Myostatin and 0% on GDF-11. Besides, the inhibition at 0.1 µM worked out at 68% at Myostatin and 0% at GDF-11.
